One data set relates to RG2 cells. The data set can be described thus: In situ (intra-cranial) RG2 GBM tumor in rats, MRI tumor volume. The class given is in vivo, F344 rats. The following applies: BP 300 mg/kg/day s.c. day 4-8, i.c. RG2. Here is the method: (§1) The RG2 cells (rat GBM) and DBTRG-05MG cells (human GBM) were used in animal experiments to monitor the anti-tumor activities of AS-C and BP. Male F344 rat (230-260 g) and male Foxn1 nu/nu mice (10-12 weeks) were obtained from National Laboratory Animal Center (Taipei, Taiwan). All procedures were performed in compliance with the Standard Operation Procedures of the Laboratory Animal Center of Tzu Chi University (Hualien, Taiwan). Animals were kept under pathogen-free conditions and fed a standard laboratory diet. The DBTRG-05MG cells (human GBM) and RG2 cells (rat GBM) were prepared for nude mice xenografts and rat allogenics, respectively.
The cytotoxic effect of AS-C on in situ tumor was determined with RG2 cells. […] Tumor volumes were measured and calculated by 3-T unit MRI (General Electric, Wisconsin, USA) with echo-planar imaging capability (Signa LX 3.8, General Electric, Wisconsin, USA) in Buddhist Tzu Chi General Hospital (Hualien, Taiwan). […]
The rats in two groups (6/group) were implanted i.c. (striatum) with 5×10^4 RG2 cells, and randomly treated with BP (300 mg/kg/day) or vehicle s.c. in the hind flank region after tumor cell implantation at day 4, 5, 6, 7 and 8 for five dosages. Tumor volume was measured and calculated by MRI. […] Finally, the whole tumor sizes (mm^3) were measured and calculated for each group.

In another data set the test system is DBTRG-05MG cells. Description: s.c. xenograft human GBM tumors in nude mice, BP. It is filed as in vivo, Foxn1 nude mice. The protocol: as §1
Animals (Foxn1 nude mice) in six groups (6/group) were implanted subcutaneously (s.c.) with 1×10^6 DBTRG-05MG cells, and randomly treated with BP s.c. (70, 150, 300, 500, 800 mg/kg/day) or vehicle s.c. at a site remote (>2 cm) from the incubated tumor after tumor cell implantation, at day 4, 5, 6, 7 and 8 for all five dosages. Tumor size was measured every 2 days and tumor volume was calculated. Animals were sacrificed when tumor exceeded 1000 mm^3. Tumor growth was monitored for 3 months for those not sacrificed. Survival rate was followed for up to 200 days.

The subject of a further data set is MMP-2. The data set can be described thus: RT-PCR of MMP-2 in HUVEC. The class given is cell-based, human.
Data set [1] is described as follows: Cytotoxicity (IC50) on Balb/3T3. The following applies: mouse, Balb/3T3 cells. It is filed as cell-based. The protocol:
Human tumor cell lines (MCF-7, CL1-5, HT-29, Caco-2), human umbilical vascular endothelial cells (HUVEC), and human dermal fibroblasts (HDF) were tested for sensitivity on Angelicae sinensis extracts, ligustilide, n-butylidenephthalide and its derivatives in vitro. The DBTRG-05MG, BCM, HL-60 and J5 cells were grown in RPMI-1640 medium containing 10% fetal calf serum and 100 ng/ml penicillin and […] streptomycin at 37° C. in a humidified atmosphere with 5% CO2. The G5T/VGH, RG2, Ni 8, SVEC and Balb/3T3 cells were cultured in DMEM with 10% fetal calf serum and 100 ng/ml penicillin and […] streptomycin at 37° C. in 5% CO2. Mycoplasma infection of the culture cells was excluded by PCR screening methods before each experiment.
The effects on cell viability after the treatments with different concentrations of the Angelicae sinensis extracts or the active components purified therefrom were evaluated by modified MTT assay in triplicate. Briefly, the cells (5×10^3) were incubated into 96-well plates containing 100 μl of a growth medium. The cells were permitted to adhere for 24 hours, then treated with 100 μl of the herbal extracts or the active components dissolved in the medium. The control contained DMSO of <0.02% (v/v). […] Absorbance at 550 nm of the solutions was measured with MRX Microtiter Plate Luminometer (DYNEX, USA). The absorbance of untreated cells was considered as 100%. […]

Molecules are shown by their SMILES. Like-named read-outs stand apart in the source and are kept apart here. A value given as a limit tells only on which side of the number the result lay.

The record followed here is patent publication US7455861B2, “Angelicae sinensis extracts useful for treatment of cancers” (priority 2004, dated 2008).

For `CCCC=C1OC(=O)c2ccccc21` [BP, n-Butylidenephthalide], in the data set with RG2 cells, the “mean tumor volume at day 14 (MRI)” value is on record as 46.6±1.8 mm^3. In the data set with RG2 cells, the “mean tumor volume at day 16 (MRI)” value is 91.68±8.3 mm^3. Also, the “tumor growth compared with untreated group” value in the data set on DBTRG-05MG cells (BP s.c. 70-800 mg/kg/day day 4-8, dose dependent, p<0.005 for 300 mg/kg) is recorded as “significant suppressions of tumor growth”. For the same compound, the “survival period of nude mice” value in the data set with DBTRG-05MG cells (BP s.c. 70-800 mg/kg/day, followed for up to 200 days) was “up to 200 days”. Moreover, the “Inhibition RT-PCR MMP-2” value in the data set on MMP-2 was 159.4 µg/mL; with MMP-2 (value in parentheses) it was “(847.9 μM)”. Moreover, the half-maximal inhibitory concentration (IC50) in data set [1] (Table 2) was more than 300 µg/mL; in data set [1] (Table 2, value in parentheses) it was more than 1.6 mM.
